Our source for the IC50 and Activity values is ChEMBL document CHEMBL2150953, “Synthesis and antiproliferative activity of helonioside A, 3',4',6'-tri-O-feruloylsucrose, lapathoside C and their analogs” (Eur J Med Chem, 2012).

What all share (assay type): functional, cell-based
Test [1] concerns HeLa. The experiment in a line: Cytotoxicity against human HeLa cells after 48 hrs by MTS assay.
For test [2], the system named is HeLa. Kind of test: Cytotoxicity against human HeLa cells after 24 hrs by MTS assay.
Test [3] concerns HeLa. Kind of test: Cytotoxicity against human HeLa cells by MTS assay. The note with it: TDE = time-dependent effect. (Tetrazolium assays rely on reduction of a dye to a coloured formazan, in cell work by metabolically active cells.)

Each structure is given as a SMILES string. Bounds are passed on as bounds.

A word on the IC50: it is the concentration that inhibits the measured activity by half. A high value points to a need for much substance. In turn, `COc1cc(/C=C/C(=O)OC[C@H]2O[C@]3(COC(C)(C)O[C@H]4[C@H](O[C@@H]5COC(C)(C)O[C@H]5[C@@H]4O)O3)[C@@H](OC(=O)/C=C/c3ccc(O)c(OC)c3)[C@@H]2OC(=O)/C=C/c2ccc(O)c(OC)c2)ccc1O` yielded an IC50 in test [1] of 4.2 µM.
`COc1cc(/C=C/C(=O)OC[C@H]2O[C@H](O[C@]3(CO)O[C@H](COC(=O)/C=C/c4ccc(O)cc4)[C@@H](O)[C@@H]3OC(=O)/C=C/c3ccc(O)cc3)[C@H](O)[C@@H](O)[C@@H]2O)ccc1O` [LAPATHOSIDE C] displayed an IC50 in test [1] of 12.6 µM.
Same read-out and setting: for `COc1cc(/C=C/C(=O)OC[C@H]2O[C@]3(COC(C)(C)O[C@H]4[C@H](O[C@@H]5COC(C)(C)O[C@H]5[C@@H]4OC(=O)/C=C/c4ccc(OC(C)=O)c(OC)c4)O3)[C@@H](OC(=O)/C=C/c3ccc(OC(C)=O)c(OC)c3)[C@@H]2OC(=O)/C=C/c2ccc(OC(C)=O)c(OC)c2)ccc1OC(C)=O` the value was 3.22 µM; for `COc1cc(/C=C/C(=O)OC[C@H]2O[C@@](CO)(O[C@H]3O[C@H](CO)[C@@H](O)[C@H](O)[C@H]3O)[C@@H](OC(=O)/C=C/c3ccc(O)c(OC)c3)[C@@H]2O)ccc1O` [HELONIOSIDE A], greater than 100 µM.
`O=C(/C=C/c1ccc(O)cc1)OC[C@H]1O[C@@](CO)(O[C@H]2O[C@H](COC(=O)/C=C/c3ccc(O)cc3)[C@@H](O)[C@H](OC(=O)/C=C/c3ccc(O)cc3)[C@H]2O)[C@@H](OC(=O)/C=C/c2ccc(O)cc2)[C@@H]1O` yielded an IC50 in test [1] of 1.7 µM. In other words, the single-digit micromolar range.
As to `COc1cc(/C=C/C(=O)OC[C@H]2O[C@H](O[C@]3(CO)O[C@H](COC(=O)/C=C/c4ccc(OC(C)=O)cc4)[C@@H](O)[C@@H]3OC(=O)/C=C/c3ccc(OC(C)=O)cc3)[C@H](O)[C@@H](OC(=O)/C=C/c3ccc(OC(C)=O)c(OC)c3)[C@@H]2O)ccc1OC(C)=O`, the IC50 in test [1] worked out at 3.14 µM. Compared with the last compound, the IC50 is about 1.8-fold higher.
As for `COc1cc(/C=C/C(=O)OC[C@H]2O[C@H](O[C@]3(CO)O[C@H](COC(=O)/C=C/c4ccc(O)cc4)[C@@H](O)[C@@H]3OC(=O)/C=C/c3ccc(O)cc3)[C@H](O)[C@@H](OC(=O)/C=C/c3ccc(O)cc3)[C@@H]2O)ccc1O`, the IC50 in test [1] is 3.12 µM. This IC50 and that of the compound before are within 1.5-fold of each other.
The same measure, in the same setting: for `COc1cc(/C=C/C(=O)OC[C@H]2O[C@]3(COC(C)(C)O[C@H]4[C@H](O[C@@H]5COC(C)(C)O[C@H]5[C@@H]4O)O3)[C@@H](O)[C@@H]2O)ccc1OC(C)=O` the value was greater than 100 µM.
On to `COc1cc(/C=C/C(=O)OC[C@H]2O[C@]3(COC(C)(C)O[C@H]4[C@H](O[C@@H]5COC(C)(C)O[C@H]5[C@@H]4O)O3)[C@@H](OC(=O)/C=C/c3ccc(OC(C)=O)c(OC)c3)[C@@H]2O)ccc1OC(C)=O`, for which the IC50 in test [1] is 6.01 µM; in test [2] it was 27.9 µM. In addition, in test [3], the Activity entry was “tde”.
`COc1cc(/C=C/C(=O)OC[C@H]2O[C@@](CO)(O[C@H]3O[C@H](CO)[C@@H](O)[C@H](O)[C@H]3O)[C@@H](OC(=O)/C=C/c3ccc(OC(C)=O)c(OC)c3)[C@@H]2O)ccc1OC(C)=O` returned an IC50 in test [1] greater than 100 µM.
Consider `COc1cc(/C=C/C(=O)OC[C@H]2O[C@@](CO)(O[C@H]3O[C@H](CO)[C@@H](O)[C@H](O)[C@H]3O)[C@@H](OC(=O)/C=C/c3ccc(OC(C)=O)c(OC)c3)[C@@H]2OC(=O)/C=C/c2ccc(OC(C)=O)c(OC)c2)ccc1OC(C)=O`, for which, in test [1], half-maximal inhibition (IC50) was put at 1.7 µM.
In turn, `COc1cc(/C=C/C(=O)OC[C@H]2O[C@H](O[C@]3(CO)O[C@H](COC(=O)/C=C/c4ccc(OC(C)=O)cc4)[C@@H](O)[C@@H]3OC(=O)/C=C/c3ccc(OC(C)=O)cc3)[C@H](O)[C@@H](O)[C@@H]2O)ccc1OC(C)=O` gave an IC50 in test [1] greater than 100 µM.
For `COc1cc(/C=C/C(=O)OC[C@H]2O[C@@](CO)(O[C@H]3O[C@H](CO)[C@@H](O)[C@H](OC(=O)/C=C/c4ccc(O)c(OC)c4)[C@H]3O)[C@@H](OC(=O)/C=C/c3ccc(O)c(OC)c3)[C@@H]2OC(=O)/C=C/c2ccc(O)c(OC)c2)ccc1O`, the IC50 in test [1] was found to be 1.62 µM; in test [2] it was 7.9 µM. Besides, the Activity result in test [3] is “tde”.
For `CC(=O)Oc1ccc(/C=C/C(=O)OC[C@H]2O[C@@](CO)(O[C@H]3O[C@H](COC(=O)/C=C/c4ccc(OC(C)=O)cc4)[C@@H](O)[C@H](OC(=O)/C=C/c4ccc(OC(C)=O)cc4)[C@H]3O)[C@@H](OC(=O)/C=C/c3ccc(OC(C)=O)cc3)[C@@H]2O)cc1`, inhibition in test [1] was half-maximal at 1.86 µM (IC50).
`CC[C@@]1(O)C(=O)OCc2c1cc1n(c2=O)Cc2cc3ccccc3nc2-1` [CAMPTOTHECIN] registered an IC50 in test [1] of 0.4 µM.
As for `COc1cc(/C=C/C(=O)OC[C@H]2O[C@@](CO)(O[C@H]3O[C@H](CO)[C@@H](O)[C@H](O)[C@H]3O)[C@@H](OC(=O)/C=C/c3ccc(O)c(OC)c3)[C@@H]2OC(=O)/C=C/c2ccc(O)c(OC)c2)ccc1O`, the IC50 in test [1] is 22.4 µM; in test [2], 55.1 µM. Also, the Activity entry in test [3] was “tde”.
Take `COc1cc(/C=C/C(=O)OC[C@H]2O[C@H](O[C@]3(CO)O[C@H](COC(=O)/C=C/c4ccc(O)cc4)[C@@H](O)[C@@H]3OC(=O)/C=C/c3ccc(O)cc3)[C@H](O)[C@@H](OC(=O)/C=C/c3ccc(O)c(OC)c3)[C@@H]2O)ccc1O`: it took 1.67 µM to reach half-maximal inhibition in test [1] (IC50).
In test [1], `COc1cc(/C=C/C(=O)OC[C@H]2O[C@]3(COC(C)(C)O[C@H]4[C@H](O[C@@H]5COC(C)(C)O[C@H]5[C@@H]4O)O3)[C@@H](OC(=O)/C=C/c3ccc(OC(C)=O)c(OC)c3)[C@@H]2OC(=O)/C=C/c2ccc(OC(C)=O)c(OC)c2)ccc1OC(C)=O` registered an IC50 of 0.16 µM.
